Data published in patent publication US8952024B2, “Herbicidal pyrimidone derivatives” (E I du Pont de Nemours and Company, priority 2009, dated 2015).

Columns and labels:
Test in all cases: Test B pre-/postemergence plant response
Assay type in all cases: in vivo
[1] = test system: large crabgrass (Digitaria sanguinalis)
How it was run: (§1)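 Steps: sow seed in loam–sand soil and spray preemergence, or grow plants in peat-based medium to 1–4 leaves (2–18 cm) and spray postemergence; formulation is non-phytotoxic solvent plus surfactant; hold in greenhouse 13–15 days; score visually vs controls, 0 = no effect, 100 = complete control.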

[2] = test system: green foxtail (Setaria viridis)
How it was run: as §1

[3] = test system: downy bromegrass (Bromus tectorum)
How it was run: as §1

[4] = test system: pigweed (Amaranthus retroflexus)
How it was run: as §1

[5] = test system: Surinam grass (Brachiaria decumbens)
How it was run: as §1

[6] = test system: lambsquarters (Chenopodium album)
How it was run: as §1

[7] = test system: woolly cupgrass (Eriochloa villosa)
How it was run: as §1

[8] = test system: ragweed (common ragweed, Ambrosia elatior)
How it was run: as §1

[9] = test system: goosegrass (Eleusine indica)
How it was run: as §1

[10] = test system: velvetleaf (Abutilon theophrasti)
How it was run: as §1

[11] = test system: wheat (Triticum aestivum)
How it was run: as §1

[12] = test system: yellow nutsedge (Cyperus esculentus)
How it was run: as §1

[13] = test system: Italian ryegrass (Lolium multiflorum)
How it was run: as §1

[14] = 250 g ai/ha, Preemergence, 0 to 100 scale
[15] = Postemergence, 31 g ai/ha, scale 0 to 100 (0 no effect, 100 complete control)
[16] = Postemergence, 62 g ai/ha, scale 0 (no effect) to 100 (complete control), 13 to 15 days
[17] = Postemergence, 125 g ai/ha, visual rating after 13 to 15 days, scale 0 (no effect) to 100 (complete control)
[18] = Postemergence, 250 g ai/ha, scale 0 to 100
[19] = Preemergence, 31 g ai/ha, scale 0 to 100 (0 no effect, 100 complete control)
[20] = Preemergence, 62 g ai/ha, scale 0 to 100 (0 no effect, 100 complete control)
[21] = Preemergence, 125 g ai/ha, 0 to 100 scale
[22] = 31 g ai/ha, postemergence, scale 0 to 100, 0 is no effect, 100 is complete control
[23] = Postemergence, 250 g ai/ha, scale 0 to 100 (0 no effect, 100 complete control)
[24] = Preemergence, 125 g ai/ha, scale 0 to 100, 0 no effect, 100 complete control

Cc1cccc(Cl)c1-n1c(-c2ccccc2)ncc(C(=O)C2=C(O)CCCC2=O)c1=O [Compound 46]
85: Crabgrass, Large plant response rating [1, 21] | Plant response rating, Foxtail, Green [2, 17] | Foxtail, Green plant response rating [2, 18] | Plant response rating, Pigweed [4, 19] | Plant response rating, Lambsquarters [6, 16] | Plant response rating, Goosegrass [9, 19] | Plant response rating, Velvetleaf [10, 17]
10: Plant response rating, Foxtail, Green [2, 14] | Plant response rating, Bromegrass, Downy [3, 17] | Plant response rating, Cupgrass, Woolly [7, 15] | Plant response rating, Cupgrass, Woolly [7, 19]
100: Plant response rating, Pigweed [4, 14] | Plant response rating, Lambsquarters [6, 14] | Plant response rating, Ragweed [8, 14] | Plant response rating, Ragweed [8, 19] | Ragweed plant response rating [8, 21]
60: Plant response rating, Crabgrass, Large [1, 15] | Plant response rating, Foxtail, Green [2, 16] | Plant response rating, Cupgrass, Woolly [7, 14]
5: Foxtail, Green plant response rating [2, 21] | Plant response rating, Bromegrass, Downy [3, 16] | Plant response rating, Ryegrass, Italian [13, 16] | Plant response rating, Ryegrass, Italian [13, 17]
65: Plant response rating, Crabgrass, Large [1, 16] | Plant response rating, Velvetleaf [10, 14]
55: Velvetleaf plant response rating [10, 21]
70: Plant response rating, Nutsedge, Yellow [12, 16] | Plant response rating, Nutsedge, Yellow [12, 17]
80: Plant response rating, Pigweed [4, 17] | Plant response rating, Surinam Grass [5, 17] | Plant response rating, Ragweed [8, 17] | Plant response rating, Goosegrass [9, 17] | Goosegrass plant response rating [9, 18] | Plant response rating, Velvetleaf [10, 16] | Nutsedge, Yellow plant response rating [12, 21]
90: Plant response rating, Surinam Grass [5, 14] | Plant response rating, Lambsquarters [6, 17] | Plant response rating, Lambsquarters [6, 19] | Plant response rating, Lambsquarters [6, 20] | Plant response rating, Nutsedge, Yellow [12, 14]
45: Plant response rating, Crabgrass, Large [1, 19] | Plant response rating, Foxtail, Green [2, 15] | Cupgrass, Woolly plant response rating [7, 18] | Plant response rating, Cupgrass, Woolly [7, 20]
20: Plant response rating, Cupgrass, Woolly [7, 16]
50: Cupgrass, Woolly plant response rating [7, 21]
0: Plant response rating, Foxtail, Green [2, 19] | Plant response rating, Foxtail, Green [2, 20] | Plant response rating, Bromegrass, Downy [3, 14] | Plant response rating, Bromegrass, Downy [3, 15] | Plant response rating, Bromegrass, Downy [3, 19] | Plant response rating, Bromegrass, Downy [3, 20] | Bromegrass, Downy plant response rating [3, 21] | Plant response rating, Surinam Grass [5, 19] | Plant response rating, Velvetleaf [10, 19] | Plant response rating, Wheat [11, 14] | Plant response rating, Wheat [11, 16] | Plant response rating, Wheat [11, 17] | Plant response rating, Wheat [11, 19] | Wheat plant response rating [11, 21] | Plant response rating, Ryegrass, Italian [13, 14] | Plant response rating, Ryegrass, Italian [13, 19] | Ryegrass, Italian plant response rating [13, 21]
75: Plant response rating, Crabgrass, Large [1, 17] | Crabgrass, Large plant response rating [1, 18] | Plant response rating, Crabgrass, Large [1, 20] | Plant response rating, Pigweed [4, 16] | Plant response rating, Surinam Grass [5, 16] | Surinam Grass plant response rating [5, 21] | Plant response rating, Ragweed [8, 16] | Plant response rating, Goosegrass [9, 16]
95: Pigweed plant response rating [4, 21] | Lambsquarters plant response rating [6, 18] | Lambsquarters plant response rating [6, 21]
98: Plant response rating, Crabgrass, Large [1, 14] | Plant response rating, Goosegrass [9, 14] | Goosegrass plant response rating [9, 21]
25: Bromegrass, Downy plant response rating [3, 18] | Plant response rating, Cupgrass, Woolly [7, 17] | Plant response rating, Nutsedge, Yellow [12, 19]

Cc1cc(-n2c(-c3ccccc3)ncc(C(=O)C3=C(O)CCCC3=O)c2=O)ccc1F [Compound 53]
0: Plant response rating, Bromegrass, Downy [3, 19] | Plant response rating, Bromegrass, Downy [3, 20] | Plant response rating, Cupgrass, Woolly [7, 19] | Plant response rating, Wheat [11, 19] | Plant response rating, Wheat [11, 20] | Plant response rating, Wheat [11, 24] | Plant response rating, Ryegrass, Italian [13, 22] | Plant response rating, Ryegrass, Italian [13, 19] | Plant response rating, Ryegrass, Italian [13, 20] | Plant response rating, Ryegrass, Italian [13, 24]
40: Plant response rating, Ryegrass, Italian [13, 17]
85: Plant response rating, Crabgrass, Large [1, 22] | Plant response rating, Pigweed [4, 22] | Plant response rating, Surinam Grass [5, 22] | Plant response rating, Surinam Grass [5, 20] | Plant response rating, Cupgrass, Woolly [7, 24] | Plant response rating, Ragweed [8, 16] | Plant response rating, Ragweed [8, 24] | Plant response rating, Goosegrass [9, 23] | Plant response rating, Velvetleaf [10, 22] | Plant response rating, Velvetleaf [10, 16]
55: Plant response rating, Bromegrass, Downy [3, 17] | Plant response rating, Cupgrass, Woolly [7, 20]
90: Plant response rating, Lambsquarters [6, 22] | Plant response rating, Cupgrass, Woolly [7, 16] | Plant response rating, Nutsedge, Yellow [12, 24]
30: Plant response rating, Bromegrass, Downy [3, 14] | Plant response rating, Wheat [11, 17]
45: Plant response rating, Ryegrass, Italian [13, 23]
50: Plant response rating, Bromegrass, Downy [3, 16] | Plant response rating, Wheat [11, 23]
25: Plant response rating, Wheat [11, 16]
100: Plant response rating, Crabgrass, Large [1, 14] | Plant response rating, Crabgrass, Large [1, 23] | Plant response rating, Crabgrass, Large [1, 20] | Plant response rating, Crabgrass, Large [1, 24] | Plant response rating, Foxtail, Green [2, 16] | Plant response rating, Foxtail, Green [2, 17] | Plant response rating, Foxtail, Green [2, 23] | Plant response rating, Pigweed [4, 17] | Plant response rating, Pigweed [4, 23] | Plant response rating, Pigweed [4, 24] | Plant response rating, Surinam Grass [5, 24] | Plant response rating, Lambsquarters [6, 14] | Plant response rating, Lambsquarters [6, 20] | Plant response rating, Lambsquarters [6, 24] | Plant response rating, Goosegrass [9, 14] | Plant response rating, Goosegrass [9, 20] | Plant response rating, Goosegrass [9, 24]
98: Plant response rating, Foxtail, Green [2, 14] | Plant response rating, Foxtail, Green [2, 24] | Plant response rating, Pigweed [4, 20] | Plant response rating, Surinam Grass [5, 17] | Plant response rating, Surinam Grass [5, 23] | Plant response rating, Lambsquarters [6, 17] | Plant response rating, Lambsquarters [6, 23] | Plant response rating, Lambsquarters [6, 19] | Plant response rating, Cupgrass, Woolly [7, 23] | Plant response rating, Ragweed [8, 23] | Plant response rating, Goosegrass [9, 19] | Plant response rating, Velvetleaf [10, 23] | Plant response rating, Velvetleaf [10, 20] | Plant response rating, Velvetleaf [10, 24]
35: Plant response rating, Bromegrass, Downy [3, 22]
80: Plant response rating, Ragweed [8, 22] | Plant response rating, Goosegrass [9, 16] | Plant response rating, Goosegrass [9, 17] | Plant response rating, Velvetleaf [10, 19] | Plant response rating, Nutsedge, Yellow [12, 20]
95: Plant response rating, Crabgrass, Large [1, 16] | Plant response rating, Crabgrass, Large [1, 17] | Plant response rating, Foxtail, Green [2, 22] | Plant response rating, Pigweed [4, 16] | Plant response rating, Pigweed [4, 19] | Plant response rating, Surinam Grass [5, 16] | Plant response rating, Lambsquarters [6, 16] | Plant response rating, Cupgrass, Woolly [7, 14] | Plant response rating, Cupgrass, Woolly [7, 17] | Plant response rating, Ragweed [8, 17] | Plant response rating, Velvetleaf [10, 17]
20: Plant response rating, Wheat [11, 22] | Plant response rating, Nutsedge, Yellow [12, 22]
60: Plant response rating, Foxtail, Green [2, 19] | Plant response rating, Foxtail, Green [2, 20] | Plant response rating, Bromegrass, Downy [3, 23]
5: Plant response rating, Bromegrass, Downy [3, 24] | Plant response rating, Ryegrass, Italian [13, 16]
65: Plant response rating, Cupgrass, Woolly [7, 22] | Plant response rating, Ragweed [8, 19] | Plant response rating, Nutsedge, Yellow [12, 16] | Plant response rating, Nutsedge, Yellow [12, 19]
75: Plant response rating, Crabgrass, Large [1, 19] | Plant response rating, Surinam Grass [5, 19] | Plant response rating, Ragweed [8, 20] | Plant response rating, Goosegrass [9, 22] | Plant response rating, Nutsedge, Yellow [12, 17] | Plant response rating, Nutsedge, Yellow [12, 23]
